This is an account of results in patent US12721928B1, “Active agent-eluting hemostatic agents for prevention of surgical site infection” (priority 2020, dated 2026).

The subject of one data set is cultured cells. Particulars: EDC up to 10 mg/mL; cited from earlier work.
The nature of data set [1]: FTIR of antibiotic released from hemostatic agents (structural integrity). The note with it: all released samples.
Excerpt: FTIR spectra were collected on a Nicolet Is10 to ensure structural integrity of antibiotics released from the hemostatic agents. Released samples were scanned in the range between 4000 and 800 cm^−1.
The subject of the next data set is S. aureus. Kind of data set: Modified Kirby-Bauer disk diffusion test. Format: cell-based, Staphylococcus aureus. The note with it: filter paper on S. aureus coated agar. Background: A growth-free zone around the sample is the usual read-out of agar diffusion tests.
A further data set has as its system mammalian cells. Particulars: cited from earlier work.

Read-outs that look alike come from different tables or passages of the source.

Description for S. aureus: Inhibition of S. Aureus 25293 or E. Coli (Migula) Castellani and Chalmers by antibiotic-eluting hemostatic agents was determined through modified Kirby-Bauer disk diffusion tests and microdilution assays. Throughout all Kirby-Bauer tests, agar plates were formed using tryptic soy agar. The plates were subsequently coated with the appropriate strain within its exponential growth phase at a concentration of 10^8 CFU/mL. Filter papers that had been incubated with the hemostatic agents, gelatin, or pure antibiotic equivalent to 24-hour release concentrations for two hours were then immediately placed upon the plates. Zones of inhibition were measured and photographed following 16-18 hours of incubation at 37° C.

On to `CCN=C=NCCCN(C)C` [EDC, 1-ethyl-3-(3-dimethylaminopropyl) carbodiimide], for which, in the data set with cultured cells, the “cytotoxicity to cultured cells” value is “negligibly cytotoxic”.
With `CC(C)(O/N=C(\C(=O)N[C@@H]1C(=O)N2C(C(=O)[O-])=C(C[n+]3ccccc3)CS[C@H]12)c1csc(N)n1)C(=O)O` [ceftazidime], the “basic chemical stability of released antibiotic” value in data set [1] is “confirmed”.
In the case of `CCCCCCCCCC(=O)N[C@@H](Cc1c[nH]c2ccccc12)C(=O)N[C@H](CC(N)=O)C(=O)N[C@@H](CC(=O)O)C(=O)N[C@@H]1C(=O)NCC(=O)N[C@@H](CCCN)C(=O)N[C@@H](CC(=O)O)C(=O)N[C@H](C)C(=O)N[C@@H](CC(=O)O)C(=O)NCC(=O)N[C@H](CO)C(=O)N[C@@H]([C@H](C)CC(=O)O)C(=O)N[C@@H](CC(=O)c2ccccc2N)C(=O)O[C@@H]1C` [daptomycin], in the data set with S. aureus, the “zone of inhibition (ZOI)” value was “clear zone of inhibition”.
Turning to `CN[C@H](CC(C)C)C(=O)N[C@H]1C(=O)N[C@@H](CC(N)=O)C(=O)N[C@H]2C(=O)N[C@H]3C(=O)N[C@H](C(=O)N[C@H](C(=O)O)c4cc(O)cc(O)c4-c4cc3ccc4O)[C@H](O)c3ccc(c(Cl)c3)Oc3cc2cc(c3O[C@@H]2O[C@H](CO)[C@@H](O)[C@H](O)[C@H]2O[C@H]2C[C@](C)(N)[C@H](O)[C@H](C)O2)Oc2ccc(cc2Cl)[C@H]1O` [vancomycin], in the data set with S. aureus, the “zone of inhibition (ZOI)” value is “clear zone of inhibition”. The “toxicity to mammalian cells” value with mammalian cells (each component separately) is on record as “minimally toxic”. Moreover, the “basic chemical stability of released antibiotic” value in data set [1] is listed as “confirmed”.
Take gelatin: in the data set on mammalian cells, the “toxicity to mammalian cells” value is recorded as “minimally toxic”.
